The target in one data set is T1, TTK (Homo sapiens, UniProt P33981).
T1 construct: purchased Eurofins (Celle Lévescault)
T1 sequence (P33981 1-857): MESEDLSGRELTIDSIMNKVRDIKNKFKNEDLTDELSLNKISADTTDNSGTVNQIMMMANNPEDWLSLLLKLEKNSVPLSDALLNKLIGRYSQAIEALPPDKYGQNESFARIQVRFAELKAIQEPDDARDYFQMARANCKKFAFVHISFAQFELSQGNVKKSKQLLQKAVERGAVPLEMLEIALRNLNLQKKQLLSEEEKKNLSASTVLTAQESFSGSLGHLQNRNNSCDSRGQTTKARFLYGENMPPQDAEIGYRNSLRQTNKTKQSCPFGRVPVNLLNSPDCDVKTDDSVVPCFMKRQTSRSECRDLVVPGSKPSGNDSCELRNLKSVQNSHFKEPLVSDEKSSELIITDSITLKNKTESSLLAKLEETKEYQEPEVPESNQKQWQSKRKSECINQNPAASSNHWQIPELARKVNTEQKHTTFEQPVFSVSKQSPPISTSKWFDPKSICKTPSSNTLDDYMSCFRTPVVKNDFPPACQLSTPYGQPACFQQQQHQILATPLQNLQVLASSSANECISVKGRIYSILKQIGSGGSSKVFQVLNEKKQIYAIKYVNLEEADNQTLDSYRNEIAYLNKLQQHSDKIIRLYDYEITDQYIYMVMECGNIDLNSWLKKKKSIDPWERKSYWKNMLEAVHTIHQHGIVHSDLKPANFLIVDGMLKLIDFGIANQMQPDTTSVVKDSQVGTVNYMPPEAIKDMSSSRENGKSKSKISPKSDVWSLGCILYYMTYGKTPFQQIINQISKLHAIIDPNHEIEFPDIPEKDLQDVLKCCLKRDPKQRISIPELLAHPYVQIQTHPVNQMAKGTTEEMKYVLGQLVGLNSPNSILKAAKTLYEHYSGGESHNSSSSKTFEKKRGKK
As to the kind of experiment: Eurofins kinase selectivity profile, TTK. The data set is classed as biochemical. How it is done: Subsequently, to ascertain whether the high potency of compound 11 was specific for MK2, an additional 380 human recombinant protein kinases were screened.
To assess the impact of various compounds on MK2 kinase activity, we utilized the ADP‐Glo Assay Kit (Promega) following the manufacturer's instructions. Luminescence measurements were taken using a SpectraMax Paradigm reader. The inhibition percentage was calculated using the following formula: ((specific signalDMSO control − specific signal inhibitor)/(specific signalDMSO control)) × 100%. The IC50 values were determined employing dose–response curve fitting via Prism (Graph Pad). Additionally, Eurofins company (Celle Lévescault) conducted the analysis on compound 11’s inhibitory activity against 380 other human recombinant kinases at various concentrations.

The test system of data set [1] is MRC1 and ARG-1 mRNA in RAW264.7 macrophages. As to the kind of experiment: RT-PCR of M2 markers in IL-4/IL-13 stimulated RAW264.7 macrophages. The conditions noted are these: IL-4/IL-13 20 ng/mL. The data set is classed as cell-based, mouse. An excerpt: A previous study has reported that MK2 fostered M2‐like polarization of TAMs, driving a protumor and proangiogenic phenotype which in turn accelerates tumor progression.[21] We thus assessed the influence of compound 11 on macrophage polarization and function. Our experiments used human THP‐1 monocyte induced macrophages, mouse RAW264.7 macrophages, and mouse bone marrow‐derived macrophages (BMDM). These cells were induced into M2‐like macrophages using the classic IL‐4 and IL‐13 stimuli.
FIGURE 5 Inhibition of pro‐tumorigenic M2‐like polarization in macrophages by compound 11. (A–C) RT‐PCR analysis highlights the impact of compound 11 on MRC1 and ARG‐1 mRNA expression in various macrophage cells treated with IL‐4/IL‐13 alone or combined with compound 11 for 12 h or 24 h. […] Data are shown as the mean ± SD. ^* p < 0.05; ^*** p < 0.001 versus the vehicle group, determined by unpaired t test. […]
Total RNA was extracted from cultured cells using the EZ‐press RNA Purification Kit (EZBioscience). Complementary DNA was synthesized using the ABScript III RT Master Mix for qPCR with gDNA remover (ABclonal Technology) and was quantified with primers listed in Table S5. The relative mRNA expression levels were quantified through qPCR using the SYBR green gene expression assay (ABclonal Technology).

The nature of data set [2]: Mouse pharmacokinetics study. The data set is classed as in vivo. The conditions noted are these: male, ICR, plasma, mice, ip. 10 mg/kg, mean ± SD. How it is done:
Compound 11 was dissolved in DMSO/Tween 80/PEG400/NaCl (5/5/45/45, v/v/v/v) to a concentration of 5 mg/mL and given to ICR mice (male, 18−22 g, n = 3) by intraperitoneal injection. Blood samples were obtained at intervals of 0.25, 0.5, 1, 2, 4, and 8 h following administration. The sample preparation and the analysis were following the protocol provided in the Supporting Information Methods.
[…] of plasma was mixed with […] of methanol: acetonitrile solvent (1:1, v/v) with internal standard, and the mixture was thoroughly vortexed. After centrifugation for 5 minutes, […] of the supernatant was combined with […] of water for analysis. Samples were analyzed by Xevo TQ-S triple quadrupole mass spectrometer. The ACQUITY UPLC BEH C^18 (1.7 µm, 2.0mm_ 50 mm, Waters, USA) was adopted for the analysis. Gradient elution was employed using a 5 mM ammonium acetate aqueous solution containing 0.1% formic acid, along with acetonitrile containing 0.1% formic acid. Following the analysis of compound concentrations, Phoenix WinNonlin (CERTARA, USA) was utilized to calculate the value of AUClast, AUCINFinf_obs and MRTINFinf_obs from time-concentration curves in each animal. Cmax denotes the peak plasma concentration, while Tmax signifies the time taken to achieve the peak concentration.

The text below walks through data of paper PMC11233931, “Remodeling tumor‐associated macrophage for anti‐cancer effects by rational design of irreversible inhibition of mitogen‐activated protein kinase‐activated protein kinase 2” (MedComm, 2024).

One may read the IC50 as the concentration that gives 50% inhibition. Low readings indicate greater potency, high ones weaker potency. The inhibition is the relative decrease from the control value, in per cent. What is called AUC(0-t) is the area under the concentration-time curve up to a stated or last time point. Low values mean low exposure, high ones high exposure. For orientation: Cmax means the maximum level reached in the sampled fluid or tissue. One may read the Tmax as the time from dosing to the highest level. Broadly, the half-life is the time needed for the level to fall by half in the phase considered. Lower therefore signals fast loss. For the compound `C=CC(=O)Nc1cc(-c2cc(-c3cc4c([nH]3)CCNC4=O)ccn2)ccc1OC(F)(F)F` [compound 11], the IC50 against TTK is over 1000 nM. For the same compound, the inhibition at 0.01 µM on TTK (TTK(h), 10 nM, read-out: Inhibition rate) is -1%. The inhibition at 0.1 µM at TTK (TTK(h), 100 nM, read-out: Inhibition rate) is 7%. Besides, on TTK (TTK(h), 1000 nM, read-out: Inhibition rate), the inhibition at 1 µM is 43%. Besides, in data set [1], the “effect on transcriptional level of MRC1 and ARG-1” value is on record as “significantly suppressed”. In addition, in data set [2], the AUC(0-t) was found to be 44.5 ± 21.4 ng·h/mL, the highest level (Cmax) was 126 ng/mL, the Tmax stood at 3 min and the half-life is 22.8 min. Moreover, the AUC in data set [2] (read-out: AUCinf_obc) came out at 45.2 ± 21.3 ng·h/mL. Moreover, the MRT inf in data set [2] (read-out: MRTinf_obs) came out at 98.4 ± 125 min.
